Laboratory results: PubChem BioAssay (NCI)
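Assay format: 96-well plates, 48-hour exposure. Here, GI50 denotes the concentration required for 50% inhibition of growth. The concentration for full growth arrest is given as TGI.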

Tests used:
Test in all cases: NCI-60 cell line screen, 48 h
786-0 renal = test system: 786-0 renal
A498 renal = test system: A498 renal
A549 NSCLC = test system: A549 NSCLC
ACHN renal = test system: ACHN renal
BT-549 breast = test system: BT-549 breast
CAKI-1 renal = test system: CAKI-1 renal
CCRF-CEM leukemia = test system: CCRF-CEM leukemia
COLO 205 colon = test system: COLO 205 colon
DU-145 prostate = test system: DU-145 prostate
EKVX NSCLC = test system: EKVX NSCLC
HCT-116 colon = test system: HCT-116 colon
HCT-15 colon = test system: HCT-15 colon
HL-60(TB) leukemia = test system: HL-60(TB) leukemia
HOP-62 NSCLC = test system: HOP-62 NSCLC
HOP-92 NSCLC = test system: HOP-92 NSCLC
HS 578T breast = test system: HS 578T breast
HT29 colon = test system: HT29 colon
IGROV1 ovarian = test system: IGROV1 ovarian
K-562 leukemia = test system: K-562 leukemia
KM12 colon = test system: KM12 colon
LOX IMVI melanoma = test system: LOX IMVI melanoma
M14 melanoma = test system: M14 melanoma
MALME-3M melanoma = test system: MALME-3M melanoma
MCF7 breast = test system: MCF7 breast
MDA-MB-231 breast = test system: MDA-MB-231 breast
MDA-MB-435 = test system: MDA-MB-435
MOLT-4 leukemia = test system: MOLT-4 leukemia
NCI-H226 lung = test system: NCI-H226 lung
NCI-H23 lung = test system: NCI-H23 lung
NCI-H460 lung = test system: NCI-H460 lung
NCI-H522 lung = test system: NCI-H522 lung
NCI/ADR-RES ovarian = test system: NCI/ADR-RES ovarian
OVCAR-3 ovarian = test system: OVCAR-3 ovarian
OVCAR-4 ovarian = test system: OVCAR-4 ovarian
OVCAR-5 ovarian = test system: OVCAR-5 ovarian
OVCAR-8 ovarian = test system: OVCAR-8 ovarian
PC-3 prostate = test system: PC-3 prostate
RPMI-8226 leukemia = test system: RPMI-8226 leukemia
RXF 393 renal = test system: RXF 393 renal
SF-268 CNS = test system: SF-268 CNS
SF-295 CNS = test system: SF-295 CNS
SF-539 CNS = test system: SF-539 CNS
SK-MEL-2 melanoma = test system: SK-MEL-2 melanoma
SK-MEL-28 melanoma = test system: SK-MEL-28 melanoma
SK-MEL-5 melanoma = test system: SK-MEL-5 melanoma
SK-OV-3 ovarian = test system: SK-OV-3 ovarian
SN12C renal = test system: SN12C renal
SNB-19 CNS = test system: SNB-19 CNS
SNB-75 CNS = test system: SNB-75 CNS
SR leukemia = test system: SR leukemia
SW-620 colon = test system: SW-620 colon
T-47D breast = test system: T-47D breast
TK-10 renal = test system: TK-10 renal
U251 CNS = test system: U251 CNS
UACC-257 melanoma = test system: UACC-257 melanoma
UACC-62 melanoma = test system: UACC-62 melanoma
UO-31 renal = test system: UO-31 renal

Structure (SMILES): O=C1NN(c2ccccc2)C(=O)/C1=C/c1ccc(Br)o1
- GI50 (786-0 renal): 19.8 µM
- TGI (786-0 renal): 53.2 µM
- GI50 (A498 renal): 23 µM
- TGI (A498 renal): 53.9 µM
- GI50 (A549 NSCLC): 12 µM
- TGI (A549 NSCLC): 44.4 µM
- GI50 (ACHN renal): 13.3 µM
- TGI (ACHN renal): > 49.4 µM
- TGI (BT-549 breast): 17.2 µM
- GI50 (CAKI-1 renal): 5.8 µM
- TGI (CAKI-1 renal): 20.8 µM
- GI50 (CCRF-CEM leukemia): 5.23 µM
- TGI (CCRF-CEM leukemia): 19.8 µM
- GI50 (COLO 205 colon): 3.75 µM
- TGI (COLO 205 colon): 11.2 µM
- GI50 (DU-145 prostate): 1.45 µM
- TGI (DU-145 prostate): 11.2 µM
- GI50 (EKVX NSCLC): 1.54 µM
- TGI (EKVX NSCLC): 36.6 µM
- GI50 (HCT-116 colon): 11.4 µM
- TGI (HCT-116 colon): 25.8 µM
- GI50 (HCT-15 colon): 10.1 µM
- TGI (HCT-15 colon): 24.7 µM
- GI50 (HL-60(TB) leukemia): 10.5 µM
- TGI (HL-60(TB) leukemia): > 81.1 µM
- TGI (HOP-62 NSCLC): 21.4 µM
- TGI (HOP-92 NSCLC): 3.33 µM
- GI50 (HS 578T breast): 1.49 µM
- TGI (HS 578T breast): 3.11 µM
- GI50 (HT29 colon): 4.21 µM
- TGI (HT29 colon): 22.1 µM
- GI50 (IGROV1 ovarian): 5.19 µM
- TGI (IGROV1 ovarian): 35 µM
- GI50 (K-562 leukemia): 14.1 µM
- TGI (K-562 leukemia): > 77.7 µM
- GI50 (KM12 colon): 9.71 µM
- TGI (KM12 colon): 24 µM
- GI50 (LOX IMVI melanoma): 5.42 µM
- TGI (LOX IMVI melanoma): 22.4 µM
- TGI (M14 melanoma): 16.2 µM
- TGI (MALME-3M melanoma): 0.972 µM
- GI50 (MCF7 breast): 3.54 µM
- TGI (MCF7 breast): 18.9 µM
- TGI (MDA-MB-231 breast): 20.9 µM
- GI50 (MDA-MB-435): 6.65 µM
- TGI (MDA-MB-435): 23.8 µM
- GI50 (MOLT-4 leukemia): 6.06 µM
- TGI (MOLT-4 leukemia): 24.6 µM
- GI50 (NCI-H226 lung): 13.5 µM
- TGI (NCI-H226 lung): 34.7 µM
- GI50 (NCI-H23 lung): 15.6 µM
- TGI (NCI-H23 lung): 36.1 µM
- GI50 (NCI-H460 lung): 15.1 µM
- TGI (NCI-H460 lung): 36 µM
- GI50 (NCI-H522 lung): 7.92 µM
- TGI (NCI-H522 lung): 36.8 µM
- GI50 (NCI/ADR-RES ovarian): 15.8 µM
- TGI (NCI/ADR-RES ovarian): 54.8 µM
- GI50 (OVCAR-3 ovarian): 1.07 µM
- TGI (OVCAR-3 ovarian): 13.2 µM
- GI50 (OVCAR-4 ovarian): 15.3 µM
- TGI (OVCAR-4 ovarian): 29.5 µM
- GI50 (OVCAR-5 ovarian): 14.2 µM
- TGI (OVCAR-5 ovarian): 30.6 µM
- GI50 (OVCAR-8 ovarian): 11 µM
- TGI (OVCAR-8 ovarian): 41.6 µM
- GI50 (PC-3 prostate): 6.9 µM
- TGI (PC-3 prostate): 26.3 µM
- GI50 (RPMI-8226 leukemia): 0.777 µM
- TGI (RPMI-8226 leukemia): 10.9 µM
- GI50 (RXF 393 renal): 1.02 µM
- TGI (RXF 393 renal): 2.04 µM
- GI50 (SF-268 CNS): 14 µM
- TGI (SF-268 CNS): 47.7 µM
- TGI (SF-295 CNS): 2.56 µM
- GI50 (SF-539 CNS): 20.5 µM
- TGI (SF-539 CNS): 41.9 µM
- GI50 (SK-MEL-2 melanoma): 15.8 µM
- TGI (SK-MEL-2 melanoma): 44.7 µM
- GI50 (SK-MEL-28 melanoma): 7.03 µM
- TGI (SK-MEL-28 melanoma): 29.8 µM
- GI50 (SK-MEL-5 melanoma): 1.26 µM
- TGI (SK-MEL-5 melanoma): 2.05 µM
- GI50 (SK-OV-3 ovarian): 26.7 µM
- TGI (SK-OV-3 ovarian): > 61.4 µM
- GI50 (SN12C renal): 0.951 µM
- TGI (SN12C renal): 21.3 µM
- GI50 (SNB-19 CNS): 17.5 µM
- TGI (SNB-19 CNS): 41.9 µM
- GI50 (SNB-75 CNS): 24.3 µM
- TGI (SNB-75 CNS): 58.6 µM
- GI50 (SR leukemia): 2.62 µM
- TGI (SR leukemia): 8.3 µM
- GI50 (SW-620 colon): 4.85 µM
- TGI (SW-620 colon): 24.5 µM
- GI50 (T-47D breast): 18.9 µM
- TGI (T-47D breast): 52.3 µM
- GI50 (TK-10 renal): 13.2 µM
- TGI (TK-10 renal): 33.7 µM
- GI50 (U251 CNS): 1.57 µM
- TGI (U251 CNS): 19.8 µM
- GI50 (UACC-257 melanoma): 15.4 µM
- TGI (UACC-257 melanoma): 37.3 µM
- GI50 (UACC-62 melanoma): 11.8 µM
- TGI (UACC-62 melanoma): 24.3 µM
- GI50 (UO-31 renal): 8.8 µM
- TGI (UO-31 renal): > 64.1 µM
